From patent publication US20100278835A1, “NOVEL COMPOUNDS 660” (ASTRAZENECA UK LIMITED, priority 2009, published 2010)
Converted amounts (≈) assume the structure as drawn.

How the values were obtained:
RSV RSS strain = assay: ELISA assay of antiviral activity against RSV (reduction in RSV protein expression); format: cell-based; conditions: Hep-2 cells infected with RSV RSS strain, multiplicity of infection 0.02, 3 days, concentration required to inhibit RSV protein expression by 50%
Procedure: The antiviral activity of these compounds against RSV was determined in an ELISA assay. […] ELISA assays were set up by seeding 96-well plates with 5×10^3 Hep-2 cells per well in 100 μl DMEM containing 10% FBS for 24 h. Compound dilutions were prepared in 0.5% DMSO and 50 μl/well was added to the assay plates, the plates were incubated at 37° C. in 5% CO2 for one hour. Cells were infected with 50 μl/well RSV RSS strain at a multiplicity of infection of 0.02 and were incubated at 37° C. in 5% CO2 for 3 days. Cells were then fixed and permeabilised with 75%/25% methanol acetone and blocked with 2% Marvel™, 0.05% Tween for one hour. Plates were then incubated in the presence of a 1:4000 dilution of […] polyclonal antibody (Millipore, AB1128) followed by a 1:1000 dilution of rabbit anti-goat, horseradish peroxidase (DAKO, PO449) labelled secondary antibody. The plates were developed with O-phenylenediamine in the presence of hydrogen peroxide. The antiviral activity of the compounds is presented as an IC50, the concentration required to inhibit RSV protein expression by 50%.

Thermodynamic solubility = format: physicochemical
Procedure: A known amount of the test compound was stirred in 0.1M phosphate buffer pH 7.4 at constant temperature (25° C.) for 24 h. The supernatant was then separated from un-dissolved material by double centrifugation, and subsequently analysed and quantified against a standard of known concentration in DMSO using generic HPLC-UV methodology coupled with mass spectral peak identification. Data are also included for a reference quinazolin-2,4-dione derivative disclosed in WO 03/053344.

[1] = human respiratory syncytial virus, 72 h
[2] = aqueous buffer, thermodynamic from solid, 0.1M phosphate buffer pH 7.4, 25° C., 24 h, HPLC-UV

Compound	IC50 (RSV RSS strain)	solubility thermodynamic at 24 h (Thermodynamic solubility; pH 7.4)	IC50 (RSV RSS strain; [1])	solubility thermodynamic at 24 h (Thermodynamic solubility; [2])
1-[[5-(aminomethyl)-1-isopentyl-benzimidazol-2-yl]methyl]-3-cyclopropyl-4,4-dimethyl-quinazolin-2-one [Example 21]	57 nM	1050 µM		
CC(C)CCn1c(CN2C(=O)N(C)Cc3ccccc32)nc2cc(CN)ccc21 [Example 5, 1-[[5-(aminomethyl)-1-isopentyl-benzimidazol-2-yl]methyl]-3-methyl-4H-quinazolin-2-one]			8.9 nM	2290 µM (≈ 897 µg/mL)
CC(C)CCn1c(CN2C(=O)N(C3CC3)Cc3ccccc32)nc2cc(CN)ccc21 [Example 7, 1-[[5-(Aminomethyl)-1-isopentyl-benzimidazol-2-yl]methyl]-3-cyclopropyl-4H-quinazolin-2-one]			1.7 nM	2300 µM (≈ 960 µg/mL)
COCCN1Cc2ccccc2N(Cc2nc3cc(CN)ccc3n2CCC(C)C)C1=O [Example 13, 1-[[5-(aminomethyl)-1-isopentyl-benzimidazol-2-yl]methyl]-3-(2-methoxyethyl)-4H-quinazolin-2-one]			101 nM	1560 µM (≈ 679 µg/mL)
CC(C)CCn1c(CN2C(=O)N(C3CC3)C(C)c3ccccc32)nc2cc(CN)ccc21 (centres unmarked) [Example 20, 1-[[5-(aminomethyl)-1-isopentyl-benzimidazol-2-yl]methyl]-3-cyclopropyl-4-methyl-4H-quinazolin-2-one]			9.4 nM	654 µM (≈ 282 µg/mL)
CC(C)CCn1c(CN2C(=O)N(C3CC3)Cc3c(F)cccc32)nc2cc(CN)ccc21 [Example 23, 1-[[5-(aminomethyl)-1-isopentyl-benzimidazol-2-yl]methyl]-3-cyclopropyl-5-fluoro-4H-quinazolin-2-one]			7.7 nM	242 µM (≈ 105 µg/mL)
NCc1ccc2c(c1)nc(CN1C(=O)N(C3CC3)Cc3ccccc31)n2CCCC(F)(F)F [Example 28, 1-[[5-(Aminomethyl)-1-(4,4,4-trifluorobutyl)benzimidazol-2-yl]methyl]-3-cyclopropyl-4H-quinazolin-2-one]			0.5 nM	289 µM (≈ 132 µg/mL)
CC(C)CCn1c(CN2C(=O)N(C3CC3)Cc3ccccc32)nc2cc(C(=N)N)ccc21 [Example 35, 2-[(3-cyclopropyl-2-oxo-4H-quinazolin-1-yl)methyl]-1-isopentyl-benzimidazole-5-carboxamidine]			3.2 nM	808 µM (≈ 348 µg/mL)
CC1(C)c2ccccc2N(Cc2nc3cc(/C(N)=N/O)ccc3n2CCCC(F)(F)F)C(=O)N1C1CC1 [Example 45, 2-[(3-cyclopropyl-4,4-dimethyl-2-oxo-quinazolin-1-yl)methyl]-N′-hydroxy-1-(4,4,4-trifluorobutyl)benzimidazole-5-carboxamidine]			> 1000 nM	
Cc1cc2c(cc1CN)nc(CN1C(=O)N(C3CC3)Cc3ccccc31)n2CCC(C)C [Example 46, 1-[[5-(Aminomethyl)-1-isopentyl-6-methyl-benzimidazol-2-yl]methyl]-3-cyclopropyl-4H-quinazolin-2-one]			1.5 nM	831 µM (≈ 359 µg/mL)
CC(C)CCn1c(Cn2c(=O)n(C)c(=O)c3ccccc32)nc2cc(CN)ccc21 [reference compound]				16 µM (≈ 6.49 µg/mL)
CC(C)CCn1c(Cn2c(=O)n(C3CC3)c(=O)c3ccccc32)nc2cc(CN)ccc21 [reference compound]				70 µM (≈ 30.2 µg/mL)
COCCn1c(=O)c2ccccc2n(Cc2nc3cc(CN)ccc3n2CCC(C)C)c1=O [reference compound]				36 µM (≈ 16.2 µg/mL)
NCc1ccc2c(c1)nc(Cn1c(=O)n(C3CC3)c(=O)c3ccccc31)n2CCCC(F)(F)F [reference compound]				90 µM (≈ 42.4 µg/mL)
